Data set [1] deals with rat oligodendrocyte progenitor cells. The experiment in a line: Promotive activity of rat oligodendrocyte progenitor cell differentiation-1 (MBP gene expression, mRNA). The note with it: Rattus norvegicus, Oligodendrocyte progenitor cell, 96 h, read-out: promotive activity at T3 base (MBP gene expression; DMSO 0%, T3 100%), 4 days, MBP/β actin mRNA. Type of data set: cell-based. An outline of the steps:
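Primary OPCs from 1-day-old SD rat forebrain, isolated by shaking off mixed glial cultures and seeded at 2×10^3 cells/well in B27/CNTF (10 ng/mL) differentiation medium with compound. MBP mRNA measured by one-step TaqMan real-time PCR and expressed as MBP/β-actin ratio.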

Data set [2] shares this test system. The experiment in a line: Promotive activity of rat oligodendrocyte progenitor cell differentiation-2 (immunostaining of MBP). The conditions noted are these: vitamin D derivative 2 μM, T3 30 nM, 4 days. Type of data set: cell-based. An outline of the steps: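 Rat OPCs prepared by shaking in separation medium about 22 h at 37 °C, 200 rpm, and collecting the supernatant.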

Data set [3] in a line: Evaluation of brain penetration in mice (blood and brain concentration at brain Cmax). The conditions noted are these: 1 mg/kg single oral dose, C57BL/6J mice; for Concentration in blood (mean ± SD) at brain Cmax / Concentration in brain (mean ± SD) at brain Cmax: n=3; for Kp: male, C57BL/6J, mouse, brain/plasma, po, 1 mg/kg, read-out: Concentration in brain/in blood ratio at brain Cmax. Type of data set: in vivo, mouse. An outline of the steps: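 Male C57BL/6J mice (8 weeks, n=3) dosed orally once at 1 […] mg/kg; plasma and brain collected at 0.25, 0.5, 1, 2, 4 and 8 h. Compound extracted with acetonitrile from brain homogenate and plasma, quantified by LC/MS/MS.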

In a further data set the target is T1, human VDR (Homo sapiens, UniProt P11473).
T1 sequence (P11473 1-427): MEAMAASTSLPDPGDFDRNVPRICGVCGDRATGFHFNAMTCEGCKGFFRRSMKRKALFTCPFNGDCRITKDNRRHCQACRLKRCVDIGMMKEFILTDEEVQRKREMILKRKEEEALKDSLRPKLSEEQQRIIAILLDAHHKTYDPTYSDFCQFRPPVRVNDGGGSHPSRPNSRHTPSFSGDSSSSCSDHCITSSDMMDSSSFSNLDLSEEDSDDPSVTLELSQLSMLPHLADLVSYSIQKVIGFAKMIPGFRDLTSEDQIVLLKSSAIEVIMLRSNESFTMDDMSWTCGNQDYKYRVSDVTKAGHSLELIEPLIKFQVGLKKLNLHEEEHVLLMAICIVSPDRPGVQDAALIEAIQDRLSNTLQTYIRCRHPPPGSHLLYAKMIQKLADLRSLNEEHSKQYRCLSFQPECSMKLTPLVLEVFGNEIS
T1 sequence (P19793 1-462 partner): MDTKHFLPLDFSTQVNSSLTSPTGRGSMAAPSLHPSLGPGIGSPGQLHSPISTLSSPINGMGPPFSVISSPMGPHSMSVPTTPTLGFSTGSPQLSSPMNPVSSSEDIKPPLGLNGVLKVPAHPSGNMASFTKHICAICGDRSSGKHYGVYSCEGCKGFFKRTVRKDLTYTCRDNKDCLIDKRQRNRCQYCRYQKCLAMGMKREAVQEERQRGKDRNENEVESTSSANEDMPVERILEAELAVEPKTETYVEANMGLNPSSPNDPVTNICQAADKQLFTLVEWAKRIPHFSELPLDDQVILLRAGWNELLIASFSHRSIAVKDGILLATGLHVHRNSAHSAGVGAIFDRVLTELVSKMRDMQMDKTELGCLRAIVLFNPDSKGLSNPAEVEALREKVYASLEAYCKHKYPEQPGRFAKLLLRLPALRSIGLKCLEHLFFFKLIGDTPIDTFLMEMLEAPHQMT
The data set is described as follows: Evaluation of VDR transcription activity in human osteoblasts (HOS cells), luciferase reporter. The note with it: Activity (EC50, VDR transcription activity), HOS cells transfected with human VDR, human RXRα and DR3 luciferase reporter; 21 hours.

The test system of data set [4] is mouse neural stem cells (NSCs). The experiment in a line: Promoting activity in oligodendrocyte differentiation of mouse neural stem cell (GalC immunostaining). Type of data set: cell-based. The note with it: day 10, N=5. The procedure:
To NSC basal medium (100 mL) included in this product, B27 (1 mL), Penicillin-Streptomycin (1 mL), Glutamine (1 mL), bFGF (20 μL), EGF (10 μL), and Heparin (100 μL) were added to prepare the growth medium. Mouse neural stem cells were reconstituted in a T-25 flask using the growth medium and proliferated as a neurosphere by suspension culture. The cells were expanded by passaging at a split ratio=1:2 in a CO2 incubator (5% CO2, 37° C., wet) to obtain the required number of cells. ACCUTASE (Innovative Cell Technologies, Cat. No. AT104) was used as the passage reagent.
The differentiation medium containing test substance was prepared to a target final concentration by diluting a solution of 20 mM compound in DMSO to 10-fold with DMSO and then to 2×10^5-fold with the differentiation medium. Additive-free differentiation medium for control was prepared by diluting DMSO to 2×10^5-fold with the differentiation medium to be a final concentration of 5×10^−5%.
The mouse neural stem cells were seeded on a poly-L-Lysine/Laminin-coated 96-well plate at a cell density of 2.0×10^4 cells/100 μL/well using the differentiation medium and the culture was started in a CO2 incubator (5% CO2, 37° C., wet). The next day, the medium was replaced with the differentiation medium containing a test substance or an additive-free differentiation medium for control, and evaluation of the test substance (N=5) was started (day 0). The medium was replaced every other day by 60% of the medium in the wells. On day 10, cells were fixed and immunostained.
After the medium was removed, the cells were fixed by adding 100 μL of 4% paraformaldehyde-PBS and being incubated at room temperature for 30 minutes. Next, the cells were washed 3 times with PBS, 100 μL of 5% Goat Serum/PBS was added thereto, and the mixture was incubated at room temperature for 30 minutes to perform blocking and membrane permeation treatment. […] After the cells were washed 3 times with PBS, 100 μL of PBS was added to the wells, and the wells were photographed with fluorescence microscopy. Images were taken under the same condition in all wells, and blue fluorescence and green fluorescence were simultaneously photographed.
Using the hybrid cell counting software provided in the fluorescence microscope (Keyence, BZ-X700), co-localized spots of green fluorescence and blue fluorescence were extracted, and the number of these spots was defined as the total number of GalC-positive cells, and the oligodendrocyte differentiation ratio was calculated by the following calculation:the total number of GalC-positive cells/the number of nuclei (number of blue fluorescence spots). A significant difference test was performed by t-test between the additive-free group and the sample-added group.

Regarding `C=C1/C(=C\C=C2/CCC[C@]3(C)[C@@H]([C@H](C)CN4CC[C@@H](C(F)F)C4)CC[C@@H]23)C[C@@H](O)C[C@@H]1O` [Compound B024, (1R,3 S,Z)-5-(2-((1R,3aS,7aR,E)-1-((S)-1-((R)-3-(difluoromethyl)pyrrolidin-1-yl)propan-2-yl)-7a-methyloctahydro-4H-inden-4-ylidene)ethylidene)-4-methylenecyclohexane-1,3-diol], the activation at 1 µM in data set [1] is at least 20%. In addition, the “Mean (number of MBP-positive cells/number of Hoechst33342-positive cells)” value in data set [2] (Test 1) came to 0.28. In data set [3], the “Concentration in blood (mean ± SD) at brain Cmax” value came to 431 ± 46 nM, the “Concentration in brain (mean ± SD) at brain Cmax” value was 652 ± 85 pmol/g and the Kp was 1.51.

As for `C[C@H](CN1CC[C@@H](C(F)F)C1)[C@H]1CC[C@H]2/C(=C/C=C3C[C@@H](O)C[C@H](O)C3)CCC[C@]12C` [Compound B026, (1R,3R)-5-(2-((1R,3aS,7aR,E)-1-((S)-1-((R)-3-(difluoromethyl)pyrrolidin-1-yl)propan-2-yl)-7a-methyloctahydro-4H-inden-4-ylidene)ethylidene)cyclohexane-1,3-diol], the activation at 1 µM in data set [1] is at least 20%. Moreover, in data set [2] (Test 1), the “Mean (number of MBP-positive cells/number of Hoechst33342-positive cells)” value is 0.38. Moreover, in data set [3], the “Concentration in blood (mean ± SD) at brain Cmax” value was found to be 218 ± 31 nM, the “Concentration in brain (mean ± SD) at brain Cmax” value was determined as 384 ± 40 pmol/g and the Kp is 1.76. This molecule yielded an EC50 at human VDR of 10 to 100 nM.

In the case of `C=C1[C@H](O)CC(=C/C=C2\CCC[C@]3(C)[C@@H]([C@H](C)CN4CC[C@@H](C(F)F)C4)CC[C@@H]23)C[C@H]1O` [Compound B027, (1R,3R)-5-(2-((1R,3aS,7aR,E)-1-((S)-1-((R)-3-(difluoromethyl)pyrrolidin-1-yl)propan-2-yl)-7a-methyloctahydro-4H-inden-4-ylidene)ethylidene)-2-methylenecyclohexane-1,3-diol], in data set [1], the activation at 1 µM is at least 20%. In addition, in data set [2] (Test 1), the “Mean (number of MBP-positive cells/number of Hoechst33342-positive cells)” value is reported as 0.29. Besides, in data set [3], the “Concentration in blood (mean ± SD) at brain Cmax” value came to 126 ± 14 nM, the “Concentration in brain (mean ± SD) at brain Cmax” value is recorded as 414 ± 40 pmol/g and the Kp stood at 3.29. In addition, the EC50 on human VDR lay within 1 to 10 nM.

As to `C=C1[C@H](O)CC(=C/C=C2\CCC[C@]3(C)[C@@H]([C@H](C)CN4CC[C@H](CC(F)F)C4)CC[C@@H]23)C[C@H]1O` [Compound B040, (1R,3R)-5-(2-((1R,3aS,7aR,E)-1-((S)-1-((R)-3-(2,2-difluoroethyl)pyrrolidin-1-yl)propan-2-yl)-7a-methyloctahydro-4H-inden-4-ylidene)ethylidene)-2-methylenecyclohexane-1,3-diol], in data set [1], the activation at 1 µM was at least 20%. Besides, the “Mean (number of MBP-positive cells/number of Hoechst33342-positive cells)” value in data set [2] (Test 1) is on record as 0.59. In addition, in data set [3], the “Concentration in blood (mean ± SD) at brain Cmax” value worked out at 70 ± 10 nM, the “Concentration in brain (mean ± SD) at brain Cmax” value is 153 ± 35 pmol/g and the Kp was found to be 2.18. Moreover, on human VDR, the EC50 was in the range of 1 to 10 nM.

On to `C[C@H](CN1CC[C@H](OC(F)F)C1)[C@H]1CC[C@H]2/C(=C/C=C3C[C@@H](O)C[C@H](O)C3)CCC[C@]12C` [Compound B051, (1R,3R)-5-(2-((1R,3aS,7aR,E)-1-((S)-1-((S)-3-(difluoromethoxy)pyrrolidin-1-yl)propan-2-yl)-7a-methyloctahydro-4H-inden-4-ylidene)ethylidene)cyclohexane-1,3-diol], for which, in data set [1], the activation at 1 µM was at least 20%. In data set [2] (Test 2), the “Mean (number of MBP-positive cells/number of Hoechst33342-positive cells)” value is on record as 0.45. Moreover, in data set [3], the “Concentration in blood (mean ± SD) at brain Cmax” value turned out to be 304 ± 35 nM, the “Concentration in brain (mean ± SD) at brain Cmax” value worked out at 644 ± 92 pmol/g and the Kp is 2.12. Further, the 50% effective concentration (EC50) at human VDR was 10 to 100 nM.

For the molecule `C=C1[C@H](O)CC(=C/C=C2\CCC[C@]3(C)[C@@H]([C@H](C)CN4CC[C@H](OCC(F)F)C4)CC[C@@H]23)C[C@H]1O` [Compound B055, (1R,3R)-5-(2-((1R,3aS,7aR,E)-1-((S)-1-((S)-3-(2,2-difluoroethoxy)pyrrolidin-1-yl)propan-2-yl)-7a-methyloctahydro-4H-inden-4-ylidene)ethylidene)-2-methylenecyclohexane-1,3-diol], the activation at 1 µM in data set [1] was at least 20%. The “Mean (number of MBP-positive cells/number of Hoechst33342-positive cells)” value in data set [2] (Test 2) was 0.56. Besides, in data set [3], the “Concentration in blood (mean ± SD) at brain Cmax” value is given as 309 ± 17 nM, the “Concentration in brain (mean ± SD) at brain Cmax” value is reported as 327 ± 28 pmol/g and the Kp was found to be 1.06. Also, the EC50 on human VDR lay within 1 to 10 nM.

As to `C[C@H](CN1CCOCC1)[C@H]1CC[C@H]2/C(=C/C=C3C[C@@H](O)C[C@H](O)C3)CCC[C@]12C` [Compound D004, (1R,3R)-5-(2-((1R,3aS,7aR,E)-7a-methyl-1-((S)-1-morpholinopropan-2-yl)-octahydro-4H-inden-4-ylidene)ethylidene)cyclohexane-1,3-diol], the results for the “Gal/C positive ratio Average value” in data set [4] (10 nM), in data set [4] (100 nM) and in data set [4] (1000 nM) were 12.61, 15.55 and 16.76, respectively.

With `C=C1[C@H](O)CC(=C/C=C2\CCC[C@]3(C)[C@@H]([C@H](C)CCN4CCOCC4)CC[C@@H]23)C[C@H]1O` [Compound D024, (1R,3R)-5-(2-((1R,3aS,7aR,E)-7a-methyl-1-((R)-4-morpholinobutan-2-yl)octahydro-4H-inden-4-ylidene)ethylidene)-2-methylenecyclohexane-1,3-diol], the activation at 1 µM in data set [1] was at least 20%. For the same molecule, the “Mean (number of MBP-positive cells/number of Hoechst33342-positive cells)” value in data set [2] (Test 2) stood at 0.39. For the same molecule, in data set [3], the “Concentration in blood (mean ± SD) at brain Cmax” value came to 368 ± 26 nM, the “Concentration in brain (mean ± SD) at brain Cmax” value was 726 ± 88 pmol/g and the Kp was 1.97.

One may read the EC50 as the midpoint of the concentration-response curve.

These data come from patent publication US20230348376A1 (TEIJIN PHARMA LIMITED, priority 2020, published 2023).
